Assay results taken from paper PMC7248194, “Cell-Based Radiotracer Binding and Uptake Inhibition Assays: A Comparison of In Vitro Methods to Assess the Potency of Drugs That Target Monoamine Transporters” (Frontiers in Pharmacology, 2020).

How the values were obtained:
rSERT [1] = target: T1, rSERT (Rattus norvegicus, UniProt P31652); test: saturation uptake, adherent HEK […] cells; format: cell-based; details: cell line 3; labelled compound, 200 nM [3H]-5-HT diluted with unlabelled; KHB pH 7.3, room temperature, 1 min; read-out: Km ± SD
T1 construct: gene Slc6a4; full-length, stably expressed in HEK 293 cells (Vienna, 'cell line 3')
T1 sequence (P31652 whole entry): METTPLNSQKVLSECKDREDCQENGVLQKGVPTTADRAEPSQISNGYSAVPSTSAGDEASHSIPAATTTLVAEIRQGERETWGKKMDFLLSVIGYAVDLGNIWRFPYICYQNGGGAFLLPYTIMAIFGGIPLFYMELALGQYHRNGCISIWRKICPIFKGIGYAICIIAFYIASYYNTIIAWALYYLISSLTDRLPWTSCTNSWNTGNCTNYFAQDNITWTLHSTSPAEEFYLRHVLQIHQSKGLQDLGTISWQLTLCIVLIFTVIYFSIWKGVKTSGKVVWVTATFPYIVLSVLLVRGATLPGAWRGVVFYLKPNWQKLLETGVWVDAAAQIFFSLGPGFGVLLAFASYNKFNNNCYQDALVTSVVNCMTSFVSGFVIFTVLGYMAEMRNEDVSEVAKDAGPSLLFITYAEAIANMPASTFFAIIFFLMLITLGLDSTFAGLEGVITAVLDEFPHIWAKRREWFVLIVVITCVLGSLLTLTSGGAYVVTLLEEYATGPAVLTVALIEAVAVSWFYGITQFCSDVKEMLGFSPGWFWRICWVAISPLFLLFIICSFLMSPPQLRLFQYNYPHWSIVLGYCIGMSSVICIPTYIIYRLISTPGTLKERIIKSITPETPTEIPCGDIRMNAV

hSERT = target: T2, hSERT (Homo sapiens, UniProt P31645); test: [3H]-CFT saturation binding, adherent HEK […] cells; format: cell-based; details: read-out: Kd ± SD
T2 construct: gene SLC6A4; full-length, stably expressed in HEK 293 cells (Basel, 'cell line 2')
T2 sequence (P31645 whole entry): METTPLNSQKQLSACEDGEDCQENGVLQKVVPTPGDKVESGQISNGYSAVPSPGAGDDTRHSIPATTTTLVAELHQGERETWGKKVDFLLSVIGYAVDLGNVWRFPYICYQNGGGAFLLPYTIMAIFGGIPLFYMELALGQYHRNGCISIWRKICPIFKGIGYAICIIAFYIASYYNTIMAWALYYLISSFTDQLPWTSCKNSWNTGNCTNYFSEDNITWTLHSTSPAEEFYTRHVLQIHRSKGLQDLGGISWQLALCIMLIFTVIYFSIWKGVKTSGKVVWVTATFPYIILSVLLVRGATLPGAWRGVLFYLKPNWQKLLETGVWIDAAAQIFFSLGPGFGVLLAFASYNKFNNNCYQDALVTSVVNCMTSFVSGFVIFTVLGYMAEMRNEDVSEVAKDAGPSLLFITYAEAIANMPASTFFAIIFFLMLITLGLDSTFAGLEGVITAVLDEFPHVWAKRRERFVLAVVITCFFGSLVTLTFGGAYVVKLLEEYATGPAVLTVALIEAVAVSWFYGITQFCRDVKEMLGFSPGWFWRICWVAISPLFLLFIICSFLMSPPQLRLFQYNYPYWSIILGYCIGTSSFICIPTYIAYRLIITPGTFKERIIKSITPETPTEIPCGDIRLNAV

rNET = target: T3, rNET (Rattus norvegicus, UniProt Q63380); test: [3H]-CFT saturation binding, adherent HEK […] cells; format: cell-based; details: read-out: Kd ± SD
T3 construct: gene Slc6a2; full-length, stably expressed in HEK 293 cells (Vienna, 'cell line 3')
T3 sequence (Q63380 1-617): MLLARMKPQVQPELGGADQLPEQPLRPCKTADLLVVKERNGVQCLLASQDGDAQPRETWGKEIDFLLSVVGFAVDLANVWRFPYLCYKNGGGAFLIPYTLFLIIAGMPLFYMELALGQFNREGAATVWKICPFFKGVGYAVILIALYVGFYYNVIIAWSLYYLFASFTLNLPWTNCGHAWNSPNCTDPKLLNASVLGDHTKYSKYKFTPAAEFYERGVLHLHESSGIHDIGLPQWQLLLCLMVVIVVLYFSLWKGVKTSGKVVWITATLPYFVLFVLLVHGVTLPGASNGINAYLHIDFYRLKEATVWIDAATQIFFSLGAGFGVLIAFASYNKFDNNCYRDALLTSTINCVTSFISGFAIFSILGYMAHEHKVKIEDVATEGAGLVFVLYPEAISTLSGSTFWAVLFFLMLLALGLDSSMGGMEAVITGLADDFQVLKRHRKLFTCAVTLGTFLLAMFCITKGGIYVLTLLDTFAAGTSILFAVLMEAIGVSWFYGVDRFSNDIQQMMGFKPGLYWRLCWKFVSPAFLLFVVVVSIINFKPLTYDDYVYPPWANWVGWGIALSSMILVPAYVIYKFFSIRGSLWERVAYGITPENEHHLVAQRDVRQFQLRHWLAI

rSERT [2] = target: T1, rSERT; test: [3H]-CFT saturation binding, adherent HEK […] cells; format: cell-based; details: read-out: Kd ± SD
hNET = target: T4, hNET (Homo sapiens, UniProt P23975); test: [3H]-CFT saturation binding, adherent HEK […] cells; format: cell-based; details: read-out: Kd ± SD
T4 construct: gene SLC6A2; full-length, stably expressed in HEK 293 cells (Basel, 'cell line 2')
T4 sequence (P23975 whole entry): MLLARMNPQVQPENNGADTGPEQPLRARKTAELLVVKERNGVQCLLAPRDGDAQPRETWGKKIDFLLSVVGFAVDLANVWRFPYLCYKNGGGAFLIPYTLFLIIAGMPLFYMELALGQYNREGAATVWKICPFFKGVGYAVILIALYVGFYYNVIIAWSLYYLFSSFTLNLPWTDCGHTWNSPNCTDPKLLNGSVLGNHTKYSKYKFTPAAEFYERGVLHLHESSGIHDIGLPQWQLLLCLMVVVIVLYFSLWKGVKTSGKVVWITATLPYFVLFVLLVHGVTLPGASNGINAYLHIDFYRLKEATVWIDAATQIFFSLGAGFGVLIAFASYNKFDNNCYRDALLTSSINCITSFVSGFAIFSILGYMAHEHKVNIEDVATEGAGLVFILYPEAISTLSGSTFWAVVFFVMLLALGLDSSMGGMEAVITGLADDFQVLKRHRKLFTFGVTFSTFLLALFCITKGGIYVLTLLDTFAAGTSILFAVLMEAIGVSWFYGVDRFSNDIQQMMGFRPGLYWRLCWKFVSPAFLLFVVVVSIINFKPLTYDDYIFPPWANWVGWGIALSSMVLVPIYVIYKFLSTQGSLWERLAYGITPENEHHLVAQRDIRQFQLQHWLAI

NCCc1c[nH]c2ccc(O)cc12 = tested on: T5, NCCc1c[nH]c2ccc(O)cc12; test: cells, lysate or membranes; format: cell-based, Homo sapiens; details: cell line 2, labelled compound, 200 nM [3H]-5-HT diluted with unlabelled, KHB pH 7.3, room temperature, 1 min
T5 construct: full-length, stably expressed in HEK 293 cells (Basel, 'cell line 2')

[3] = substrate: NCCc1ccc(O)c(O)c1; test: cells, lysate or membranes; details: cell line 2, labelled compound, 200 nM [3H]-dopamine diluted with unlabelled, KHB pH 7.3, room temperature, 1 min
[4] = substrate: NCCc1ccc(O)c(O)c1; test: cells, lysate or membranes; format: cell-based, Rattus norvegicus; details: cell line 3, labelled compound, 200 nM [3H]-dopamine diluted with unlabelled, KHB pH 7.3, room temperature, 1 min

`NCCc1c[nH]c2ccc(O)cc12` [5-HT] was tested, and the Km (rSERT [1]) was 3.4 ± 1.5 µM.

Molecule `COC(=O)[C@H]1[C@@H](c2ccc(F)cc2)C[C@@H]2CC[C@H]1N2C` [CFT, 2-β-carbomethoxy-3-β-(4-fluorophenyl)tropane] has a Kd (hSERT) of 1200 ± 400 nM, a Kd (rNET) of 130 ± 70 nM and a Kd (rSERT [2]) of 1130 ± 70 nM. For the same molecule, the Kd (hNET) was 70 ± 20 nM.

In the case of hSERT (Homo sapiens), the Km (NCCc1c[nH]c2ccc(O)cc12) is reported as 4.1 ± 1.0 µM.

B1: hDAT (Homo sapiens) (protein)
chain: MSKSKCSVGLMSSVVAPAKEPNAVGPKEVELILVKEQNGVQLTSSTLTNPRQSPVEAQDRETWGKKIDFLLSVIGFAVDLANVWRFPYLCYKNGGGAFLVPYLLFMVIAGMPLFYMELALGQFNREGAAGVWKICPILKGVGFTVILISLYVGFFYNVIIAWALHYLFSSFTTELPWIHCNNSWNSPNCSDAHPGDSSGDSSGLNDTFGTTPAAEYFERGVLHLHQSHGIDDLGPPRWQLTACLVLVIVLLYFSLWKGVKTSGKVVWITATMPYVVLTALLLRGVTLPGAIDGIRAYLSVDFYRLCEASVWIDAATQVCFSLGVGFGVLIAFSSYNKFTNNCYRDAIVTTSINSLTSFSSGFVVFSFLGYMAQKHSVPIGDVAKDGPGLIFIIYPEAIATLPLSSAWAVVFFIMLLTLGIDSAMGGMESVITGLIDEFQLLHRHRELFTLFIVLATFLLSLFCVTNGGIYVFTLLDHFAAGTSILFGVLIEAIGVAWFYGVGQFSDDIQQMTGQRPSLYWRLCWKLVSPCFLLFVVVVSIVTFRPPHYGAYIFPDWANALGWVIATSSMAMVPIYAAYKFCSLPGSFREKLAYAIAPEKDRELVDRGEVRQFTLRHWLKV
For B1, the Km [3] was 5.5 ± 0.8 µM.

B2: rDAT (Rattus norvegicus) (protein)
chain: MSKSKCSVGPMSSVVAPAKESNAVGPREVELILVKEQNGVQLTNSTLINPPQTPVEAQERETWSKKIDFLLSVIGFAVDLANVWRFPYLCYKNGGGAFLVPYLLFMVIAGMPLFYMELALGQFNREGAAGVWKICPVLKGVGFTVILISFYVGFFYNVIIAWALHYFFSSFTMDLPWIHCNNTWNSPNCSDAHASNSSDGLGLNDTFGTTPAAEYFERGVLHLHQSRGIDDLGPPRWQLTACLVLVIVLLYFSLWKGVKTSGKVVWITATMPYVVLTALLLRGVTLPGAMDGIRAYLSVDFYRLCEASVWIDAATQVCFSLGVGFGVLIAFSSYNKFTNNCYRDAIITTSINSLTSFSSGFVVFSFLGYMAQKHNVPIRDVATDGPGLIFIIYPEAIATLPLSSAWAAVFFLMLLTLGIDSAMGGMESVITGLVDEFQLLHRHRELFTLGIVLATFLLSLFCVTNGGIYVFTLLDHFAAGTSILFGVLIEAIGVAWFYGVQQFSDDIKQMTGQRPNLYWRLCWKLVSPCFLLYVVVVSIVTFRPPHYGAYIFPDWANALGWIIATSSMAMVPIYATYKFCSLPGSFREKLAYAITPEKDHQLVDRGEVRQFTLRHWLLL
notes: full-length, stably expressed in HEK 293 cells (Vienna, 'cell line 3')
B2 gave a Km [4] of 8.8 ± 3.9 µM.
